{"source": "patent US8802693B1", "about": "“Azaadamantane derivatives and methods of use” (priority 2011, dated 2014)", "key": {"[1]": {"system": "subjects with mild-to-moderate Alzheimer's disease", "assay": "Phase 2a Clinical Study A: ADAS-cog (11-item) total score", "assay_type": "in vivo, human", "procedure": "(§1) A Phase 2a proof-of-concept (POC) study in subjects with mild-to-moderate dementia of Alzheimer type was conducted. The study was a randomized, double-blind, placebo- and active-controlled, multicenter study designed to evaluate the efficacy and safety of Compound A (ABT-126) in subjects diagnosed with mild-to-moderate Alzheimer's disease, defined as meeting National Institute of Neurological and Communicative Disorders and Stroke/Alzheimer's Disease and Related Disorders Association (NINCDS/ADRDA) criteria for probable AD. […] Subjects were randomized in an equal ratio to one of four treatment groups (placebo, 5 mg Compound A, 25 mg Compound A, or donepezil) for a 12-week treatment period. The primary efficacy measure was the Alzheimer's Disease Assessment Scale—cognitive subscale (ADAS-Cog). Subjects were generally in good health and any chronic medical conditions were stable during the time of screening. Subjects were not taking other medication for Alzheimer's disease.\n(§2) The study was a Phase 2, randomized, double-blind, placebo- and active-controlled, multicenter study designed to evaluate the dose-response relationship and safety of two doses of Compound A in subjects diagnosed with mild to moderate AD, defined as meeting NINCDS/ADRDA criteria for probable AD.\n(§3) The study consisted of a Screening Period of up to 28 days, a 12-week treatment period, and a post-treatment period. The screening period consisted of three visits: Screening Visit 1, Screening Visit 2, and Day −1. Upon completion of Day −1 procedures, eligible subjects were randomized through an Interactive Voice Response/Interactive Web-Based (IVR/IWB) system. Subjects were randomized in an equal ratio to one of four treatment groups (placebo, 5 mg Compound A, 25 mg Compound A, or donepezil).\n(§4) Each subject was instructed to take study drug once-daily in the morning for 12 weeks. Subjects randomized to donepezil took 5 mg donepezil QD for the first 4 weeks and began 10 mg donepezil QD at Week 4 through the remainder of the study. The subject and investigator were blinded to the treatment assignment throughout the study.\nSubjects completed 4 visits during the treatment period at Week 2, Week 4, Week 8 and Week 12. Subjects returned to the study site for a follow-up visit approximately 2 weeks after the Week 12 or premature discontinuation visit for a safety evaluation. In addition, study site personnel contacted each subject's caregiver by telephone approximately 30 days after the subject's last dose of study drug to ascertain the subject's safety status.\n(§5) The primary efficacy measure was the Alzheimer's Disease Assessment Scale-cognitive subscale (ADAS-cog). The ADAS-cog was designed to assess the cognitive impairments most common in AD. The ADAS-cog is a subscale of the ADAS, which focuses on cognitive functioning and memory. Two versions were used in the study: an 11-item version and an expanded (13-item) version. The 11-item version of the ADAS-cog was the primary endpoint measure in this study. ADAS-Cog (13-item) was administered throughout the study and the primary efficacy variable was considered the change from baseline to final evaluation on the ADAS-cog total score (11-item).\nThe 11-item ADAS-cog includes the following tests: Word Recall, Commands, Constructional Praxis, Naming Objects and Fingers, Ideational Praxis, Orientation, Word Recognition, Remembering Test Instructions, Comprehension of Spoken Language, Spoken Language Ability, and Word Finding Difficulty. The total score of the 11-item ADAS-cog ranges from 0 to 70, with a higher score representing greater impairment.\nThe primary efficacy variable was the change from baseline to the final observation on the ADAS-cog (11-item) total score. The primary efficacy analysis was carried out using an ANCOVA model with treatment and study site as the main effects and baseline score as the covariate. […]"}, "[2]": {"system": "subjects with mild-to-moderate Alzheimer's disease", "assay": "Phase 2a Clinical Study A: ADAS-cog (13-item) total score", "assay_type": "in vivo, human", "procedure": "as §1, §2, §3, §4, §5\nThe 13-item ADAS-cog is comprised of the 11-item ADAS-cog with two additional items (Delayed Word Recall and a Number Cancellation Test) that are designed to assess attention and concentration. The Delayed Word Recall Test (range from 0 to 10) was an addition to the Word Recall Test to enhance sensitivity of the instrument in assessing cognition functioning on patients with mild AD. The Number Cancellation Test (range from 0 to 5) was reliable and sensitive to a broad range of dementia severity, and was recommended as a useful addition to the 11-item ADAS-cog. The total score of the 13-item ADAS-cog ranges from 0 to 85, with a higher score representing greater impairment. The ADAS-cog (13-item) was administered by a certified rater at Screening Visit 1, Screening Visit 2, and Day-1, as well as Weeks 4, 8, and 12 during the study."}, "[3]": {"conditions": "donepezil 5 mg QD first 4 weeks then 10 mg QD, ANCOVA, baseline to final evaluation"}, "[4]": {"conditions": "donepezil 5 mg QD first 4 weeks then 10 mg QD, Change to Week 8"}, "[5]": {"conditions": "donepezil 5 mg QD first 4 weeks then 10 mg QD, Change to Week 12"}, "[6]": {"conditions": "donepezil 5 mg QD first 4 weeks then 10 mg QD, MMRM, Week 8"}, "[7]": {"conditions": "donepezil 5 mg QD first 4 weeks then 10 mg QD, MMRM, Week 12"}, "[8]": {"conditions": "donepezil 5 mg QD first 4 weeks then 10 mg QD, final evaluation, 12-week treatment"}, "[9]": {"conditions": "donepezil 5 mg QD, Change to Week 4"}, "[10]": {"conditions": "donepezil 5 mg QD, MMRM, Week 4"}}}
{"smiles": "COc1cc2c(cc1OC)C(=O)C(CC1CCN(Cc3ccccc3)CC1)C2", "note": "(stereo not shown) [Donepezil, donepezil, reference compound]", "values": [{"measurement": "ADAS-cog (11-Item) Total Score Difference From Placebo LS Mean (SE) of Difference", "setting": "[1]; [3]", "value": "−1.43"}, {"measurement": "ADAS-cog (11-Item) Total Score LS Mean (SE) of Change", "setting": "[1]; [3]", "value": "−2.11 (0.65)"}, {"measurement": "ADAS-cog (11-Item) Total Score Observed Mean (SD) change", "setting": "[1]; [4]", "value": "−1.69 (4.96)"}, {"measurement": "ADAS-cog (11-Item) Total Score Observed Mean (SD) change", "setting": "[1]; [5]", "value": "−2.91 (4.76)"}, {"measurement": "ADAS-cog (11-Item) Total Score Difference From Placebo LS Mean (SE) of Difference", "setting": "[1]; [6]", "value": "−0.70 (0.83)"}, {"measurement": "ADAS-cog (11-Item) Total Score LS Mean (SE) of Change from Baseline", "setting": "[1]; [6]", "value": "−1.26 (0.59)"}, {"measurement": "ADAS-cog (11-Item) Total Score Difference From Placebo LS Mean (SE) of Difference", "setting": "[1]; [7]", "value": "−1.57 (0.91)"}, {"measurement": "ADAS-cog (11-Item) Total Score LS Mean (SE) of Change from Baseline", "setting": "[1]; [7]", "value": "−2.40 (0.65)"}, {"measurement": "ADAS-cog (11-Item) Total Score Observed Mean (SD) Final", "setting": "[1]; [8]", "value": "23.21 (11.53)"}, {"measurement": "ADAS-cog (11-Item) Total Score Observed Mean (SD) change", "setting": "[1]; [9]", "value": "−1.04 (3.53)"}, {"measurement": "ADAS-cog (11-Item) Total Score Difference From Placebo LS Mean (SE) of Difference", "setting": "[1]; [10]", "value": "−0.68 (0.65)"}, {"measurement": "ADAS-cog (11-Item) Total Score LS Mean (SE) of Change from Baseline", "setting": "[1]; [10]", "value": "−0.78 (0.47)"}, {"measurement": "cognition relative to placebo, ADAS-cog (11-item) MMRM (in words)", "setting": "[1]; donepezil treatment group", "value": "cognitive improvement relative to placebo"}, {"measurement": "ADAS-cog (13-Item) Total Score Difference From Placebo LS Mean (SE) of Difference", "setting": "[2]; [3]", "value": "−2.49 (1.04)"}, {"measurement": "ADAS-cog (13-Item) Total Score LS Mean (SE) of Change", "setting": "[2]; [3]", "value": "−3.27 (0.74)"}, {"measurement": "ADAS-cog (13-Item) Total Score Observed Mean (SD) change", "setting": "[2]; [4]", "value": "−2.66 (5.48)"}, {"measurement": "ADAS-cog (13-Item) Total Score Observed Mean (SD) change", "setting": "[2]; [5]", "value": "−4.17 (4.94)"}, {"measurement": "ADAS-cog (13-Item) Total Score Difference From Placebo LS Mean (SE) of Difference", "setting": "[2]; [6]", "value": "−1.85 (0.98)"}, {"measurement": "ADAS-cog (13-Item) Total Score LS Mean (SE) of Change from Baseline", "setting": "[2]; [6]", "value": "−2.20 (0.70)"}, {"measurement": "ADAS-cog (13-Item) Total Score Difference From Placebo LS Mean (SE) of Difference", "setting": "[2]; [7]", "value": "−2.48 (1.06)"}, {"measurement": "ADAS-cog (13-Item) Total Score LS Mean (SE) of Change from Baseline", "setting": "[2]; [7]", "value": "−3.61 (0.76)"}, {"measurement": "ADAS-cog (13-Item) Total Score Observed Mean (SD) Final", "setting": "[2]; [8]", "value": "33.90 (13.37)"}, {"measurement": "ADAS-cog (13-Item) Total Score Observed Mean (SD) change", "setting": "[2]; [9]", "value": "−1.84 (3.94)"}, {"measurement": "ADAS-cog (13-Item) Total Score Difference From Placebo LS Mean (SE) of Difference", "setting": "[2]; [10]", "value": "−1.53 (0.74)"}, {"measurement": "ADAS-cog (13-Item) Total Score LS Mean (SE) of Change from Baseline", "setting": "[2]; [10]", "value": "−1.53 (0.53)"}]}
